Assay results published in patent US10406146B2, “Heterocyclic compound” (TAKEDA PHARMACEUTICAL COMPANY LIMITED, priority 2015, dated 2019).

How the values were obtained:
Assay type in all cases: biochemical
HDAC6 enzyme = biological target: T1, HDAC6 enzyme (Homo sapiens, UniProt Q9UBN7); assay: HDAC6 enzyme inhibitory assay (HDAC-Glo I/II Assay kit); details: wells without enzyme = 100% inhibition; for inhibition at 1 µM: read-out: HDAC6 inhibitory rate (%) (1 μM)
T1 construct: transducing full length HDAC1 and HDAC6 genes into Sf-9 insect cells; GST; purchased SignalChem; host or cells: Sf-9 insect cells
T1 sequence (Q9UBN7 1-1215): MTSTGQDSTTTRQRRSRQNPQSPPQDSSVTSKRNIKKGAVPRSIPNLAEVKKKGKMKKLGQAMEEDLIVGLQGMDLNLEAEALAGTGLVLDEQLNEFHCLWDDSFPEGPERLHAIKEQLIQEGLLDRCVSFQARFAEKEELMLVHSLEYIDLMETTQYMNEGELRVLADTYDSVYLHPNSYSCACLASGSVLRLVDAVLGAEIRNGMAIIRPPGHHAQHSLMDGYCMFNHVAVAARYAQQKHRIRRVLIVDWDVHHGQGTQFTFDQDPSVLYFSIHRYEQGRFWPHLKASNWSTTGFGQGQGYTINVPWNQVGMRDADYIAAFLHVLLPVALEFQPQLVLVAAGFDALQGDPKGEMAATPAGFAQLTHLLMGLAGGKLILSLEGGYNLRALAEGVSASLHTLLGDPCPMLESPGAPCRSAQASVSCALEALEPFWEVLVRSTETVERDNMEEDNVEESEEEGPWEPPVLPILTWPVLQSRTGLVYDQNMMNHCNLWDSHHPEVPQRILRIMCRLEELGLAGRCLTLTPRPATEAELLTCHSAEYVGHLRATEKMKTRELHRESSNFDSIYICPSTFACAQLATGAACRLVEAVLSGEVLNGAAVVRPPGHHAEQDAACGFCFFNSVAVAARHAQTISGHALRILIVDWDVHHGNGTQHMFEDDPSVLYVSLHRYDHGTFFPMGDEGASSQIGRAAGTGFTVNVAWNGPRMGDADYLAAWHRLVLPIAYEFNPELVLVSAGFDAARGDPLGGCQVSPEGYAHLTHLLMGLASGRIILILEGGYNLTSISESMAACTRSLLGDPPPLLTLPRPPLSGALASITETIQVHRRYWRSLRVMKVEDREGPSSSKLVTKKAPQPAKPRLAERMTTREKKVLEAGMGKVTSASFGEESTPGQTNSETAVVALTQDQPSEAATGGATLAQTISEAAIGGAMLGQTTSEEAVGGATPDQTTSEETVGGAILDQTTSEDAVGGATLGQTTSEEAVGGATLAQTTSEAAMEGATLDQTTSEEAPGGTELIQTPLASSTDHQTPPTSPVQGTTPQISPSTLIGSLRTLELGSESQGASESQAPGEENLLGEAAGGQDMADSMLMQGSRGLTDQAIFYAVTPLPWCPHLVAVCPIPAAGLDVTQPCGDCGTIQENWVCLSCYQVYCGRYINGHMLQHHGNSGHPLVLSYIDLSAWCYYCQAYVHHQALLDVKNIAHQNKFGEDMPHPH
Experimental: (§1) HDAC1/6 Enzyme Inhibitory Assay
(§2) HDAC1 enzyme and HDAC6 enzyme each prepared by transducing full length HDAC1 and HDAC6 genes into Sf-9 insect cells and purifying by GST affinity column were purchased from SignalChem. Using these enzymes, HDAC1 and/or HDAC6 enzyme inhibitory activities of the compound of the present invention were evaluated. Enzymes were used after preserved at −70° C. HDAC1 or HDAC6 enzyme inhibitory activity of the compound of the present invention was measured using HDAC-Glo™ I/II Assay kit (Promega) according to the following experimental method. The test compound diluted with assay buffer (24 mM Tris-HCl (pH 7.5), 1 mM MgCl2, 0.35 mM KCl, 135 mM NaCl, 0.6 mM Glutathione, 0.01% Tween-20) was added to a 384-well plate by each 2 μL. Then, HDAC1 or HDAC6 enzyme solution diluted with assay buffer was added thereto by each 4 μL, and the plate was incubated at room temperature for 60 min. After incubated, HDAC substrate-Developer solution prepared according to Promega protocol attached to the assay kit was added to the 384-well plate by each 2 μL, and the enzyme reaction was started. After reacting at room temperature for 20 min, luminescence level was measured using plate reader Envision (PerkinElmer). The inhibitory activity of each compound was calculated as a relative activity value when luminescence level in wells without enzyme is considered as 100% inhibition.

HDAC1 enzyme = biological target: T2, HDAC1 enzyme (Homo sapiens, UniProt Q13547); assay: HDAC1 enzyme inhibitory assay (HDAC-Glo I/II Assay kit); details: wells without enzyme = 100% inhibition; for inhibition at 1 µM: read-out: HDAC1 inhibitory rate (%) (1 μM)
T2 construct: transducing full length HDAC1 and HDAC6 genes into Sf-9 insect cells; GST; purchased SignalChem; host or cells: Sf-9 insect cells
T2 sequence (Q13547 whole entry): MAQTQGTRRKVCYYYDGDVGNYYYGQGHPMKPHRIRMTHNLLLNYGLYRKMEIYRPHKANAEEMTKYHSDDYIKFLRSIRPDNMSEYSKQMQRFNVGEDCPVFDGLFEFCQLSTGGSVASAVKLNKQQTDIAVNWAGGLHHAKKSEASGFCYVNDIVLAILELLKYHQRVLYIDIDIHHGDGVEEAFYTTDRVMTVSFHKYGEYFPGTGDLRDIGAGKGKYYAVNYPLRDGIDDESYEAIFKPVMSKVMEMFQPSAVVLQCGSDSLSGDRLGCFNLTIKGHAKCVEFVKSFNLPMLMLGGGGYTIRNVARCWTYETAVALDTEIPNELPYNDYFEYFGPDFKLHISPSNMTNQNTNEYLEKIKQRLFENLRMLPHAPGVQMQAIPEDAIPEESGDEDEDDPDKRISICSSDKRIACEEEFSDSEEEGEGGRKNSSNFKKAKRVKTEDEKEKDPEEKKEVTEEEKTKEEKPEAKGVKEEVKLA
Experimental: as §1, §2

HDAC9 enzyme = biological target: T3, HDAC9 enzyme (Homo sapiens, UniProt Q9UKV0); assay: HDAC9 enzyme inhibitory assay (HDAC-Glo class IIa); details: wells without enzyme = 100% inhibition; for inhibition at 1 µM: read-out: HDAC9 inhibitory rate (%) (1 μM)
T3 construct: transducing full length HDAC9 gene into Sf-9 insect cells; made in house; host or cells: Sf-9 insect cells
T3 sequence (Q9UKV0 whole entry, species assumed): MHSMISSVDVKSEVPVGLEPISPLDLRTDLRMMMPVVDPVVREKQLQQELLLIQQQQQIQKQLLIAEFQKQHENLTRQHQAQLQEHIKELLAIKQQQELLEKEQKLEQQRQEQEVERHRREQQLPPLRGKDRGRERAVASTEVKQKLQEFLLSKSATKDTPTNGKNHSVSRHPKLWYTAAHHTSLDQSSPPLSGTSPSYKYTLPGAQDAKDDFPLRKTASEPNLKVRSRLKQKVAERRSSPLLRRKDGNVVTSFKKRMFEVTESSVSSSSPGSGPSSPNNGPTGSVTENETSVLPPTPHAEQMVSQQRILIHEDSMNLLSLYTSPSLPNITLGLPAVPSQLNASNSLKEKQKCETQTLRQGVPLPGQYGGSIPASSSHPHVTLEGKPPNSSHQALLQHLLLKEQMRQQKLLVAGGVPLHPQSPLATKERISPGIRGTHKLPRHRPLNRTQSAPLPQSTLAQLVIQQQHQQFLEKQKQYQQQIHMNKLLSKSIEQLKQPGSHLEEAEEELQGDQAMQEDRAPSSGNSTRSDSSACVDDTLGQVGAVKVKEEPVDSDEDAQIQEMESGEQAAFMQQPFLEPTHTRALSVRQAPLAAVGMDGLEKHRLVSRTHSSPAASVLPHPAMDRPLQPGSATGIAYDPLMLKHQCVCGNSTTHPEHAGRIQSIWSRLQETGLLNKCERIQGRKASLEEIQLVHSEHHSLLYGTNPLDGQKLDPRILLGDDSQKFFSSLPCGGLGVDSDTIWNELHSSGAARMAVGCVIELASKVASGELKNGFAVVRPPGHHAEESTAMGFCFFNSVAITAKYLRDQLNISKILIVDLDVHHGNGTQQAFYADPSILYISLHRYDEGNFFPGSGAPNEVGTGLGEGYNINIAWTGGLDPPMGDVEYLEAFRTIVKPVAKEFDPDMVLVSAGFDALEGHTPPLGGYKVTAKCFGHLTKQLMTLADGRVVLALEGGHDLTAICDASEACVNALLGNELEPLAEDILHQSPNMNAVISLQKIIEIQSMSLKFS
Experimental: HDAC9 Enzyme Inhibitory Assay
Enzyme was prepared by transducing full length HDAC9 gene into Sf-9 insect cells and purifying by Ni-NTA affinity column, and HDAC9 enzyme inhibitory activity was evaluated. Enzymes were used after preserved at −70° C. HDAC9 enzyme inhibitory activity of the test compound was measured using HDAC-Glo class IIa (Promega) according to the following experimental method. The test compound diluted with assay buffer (24 mM Tris-HCl (pH 7.5), 1 mM MgCl2, 0.35 mM KCl, 135 mM NaCl, 0.6 mM Glutathione, 0.01% Tween-20) was added to a 384-well plate by each 2 μL. Then, HDAC9 enzyme solution diluted with assay buffer was added thereto by each 2 μL, and the plate was incubated at room temperature for 60 min. After incubated, HDAC substrate-Developer solution prepared according to Promega protocol was added to the 384-well plate by each 4 μL, and the enzyme reaction was started. After reacting at room temperature for 20 min, luminescence level was measured using plate reader Envision (PerkinElmer). The inhibitory activity of each compound was calculated as a relative activity value when luminescence level in wells without enzyme is considered as 100% inhibition.

Compound	inhibition at 1 µM (HDAC6 enzyme) [%]	inhibition at 1 µM (HDAC1 enzyme) [%]	inhibition at 1 µM (HDAC9 enzyme) [%]	HDAC6 inhibitory rate (%) (1 μM) (HDAC6 enzyme)	HDAC1 inhibitory rate (%) (1 μM) (HDAC1 enzyme)	HDAC9 inhibitory rate (%) (1 μM) (HDAC9 enzyme)
O=C(NCC1COCCN1C(=O)Nc1ccc(-c2noc(C(F)(F)F)n2)cn1)c1ccccc1 (stereo not drawn) [Example 64, 3-((benzoylamino)methyl)-N-(5-(5-(trifluoromethyl)-1,2,4-oxadiazol-3-yl)pyridin-2-yl)morpholine-4-carboxamide]	15	85	94	–	–	–
O=C(NCC1CCCCN1C(=O)Nc1ccc(-c2noc(C(F)(F)F)n2)cc1)c1ccccc1-c1ccccc1 (stereo not drawn) [Example 13, 2-(((biphenyl-2-ylcarbonyl)amino)methyl)-N-(4-(5-(trifluoromethyl)-1,2,4-oxadiazol-3-yl)phenyl)piperidine-1-carboxamide]	9	19	82	–	–	–
Cn1nccc1C(=O)NC[C@@H]1COCCN1C(=O)Nc1ccc(-c2noc(C(F)(F)F)n2)cc1 [Example 63, (3R)-3-((((1-methyl-1H-pyrazol-5-yl)carbonyl)amino)methyl)-N-(4-(5-(trifluoromethyl)-1,2,4-oxadiazol-3-yl)phenyl)morpholine-4-carboxamide]	11	70	99	–	–	–
O=C(NCC1CCCCN1C(=O)Nc1ccc(-c2noc(C(F)(F)F)n2)cc1)c1ccc(-c2ccccc2)cc1 (stereo not drawn) [Example 15, 2-(((biphenyl-4-ylcarbonyl)amino)methyl)-N-(4-(5-(trifluoromethyl)-1,2,4-oxadiazol-3-yl)phenyl)piperidine-1-carboxamide]	-1	-12	40	–	–	–
N#Cc1ccc(C(=O)NCC2CCCCN2C(=O)Nc2ccc(-c3noc(C(F)(F)F)n3)cc2)cc1 (stereo not drawn) [Example 21, 2-(((4-cyanobenzoyl)amino)methyl)-N-(4-(5-(trifluoromethyl)-1,2,4-oxadiazol-3-yl)phenyl)piperidine-1-carboxamide]	0	28	94	–	–	–
O=C(NCC1CCCCN1C(=O)Nc1ccc(-c2noc(C(F)(F)F)n2)cc1)c1cccc(C(F)(F)F)c1 (stereo not drawn) [Example 17, 2-(((3-(trifluoromethyl)benzoyl)amino)methyl)-N-(4-(5-(trifluoromethyl)-1,2,4-oxadiazol-3-yl)phenyl)piperidine-1-carboxamide]	1	4	80	–	–	–
COc1ccccc1C(=O)NCC1CCCCN1C(=O)Nc1ccc(-c2noc(C(F)(F)F)n2)cc1 (stereo not drawn) [Example 23]	–	–	–	4	41	86
COc1ccc(C(=O)NCC2CCCCN2C(=O)Nc2ccc(-c3noc(C(F)(F)F)n3)cc2)cc1 (stereo not drawn) [Example 25, 2-(((4-methoxybenzoyl)amino)methyl)-N-(4-(5-(trifluoromethyl)-1,2,4-oxadiazol-3-yl)phenyl)piperidine-1-carboxamide]	2	12	95	–	–	–

Further lines, with some results ahead:

inhibition at 1 µM (HDAC6 enzyme) [%]	inhibition at 1 µM (HDAC1 enzyme) [%]	inhibition at 1 µM (HDAC9 enzyme) [%]	Compound	HDAC6 inhibitory rate (%) (1 μM) (HDAC6 enzyme)	HDAC1 inhibitory rate (%) (1 μM) (HDAC1 enzyme)	HDAC9 inhibitory rate (%) (1 μM) (HDAC9 enzyme)
2	-7	68	O=C(NCC1CCCCN1C(=O)Nc1ccc(-c2noc(C(F)(F)F)n2)cc1)c1cccc(Cl)c1 (stereo not drawn) [Example 8, 2-(((3-chlorobenzoyl)amino)methyl)-N-(4-(5-(trifluoromethyl)-1,2,4-oxadiazol-3-yl)phenyl)piperidine-1-carboxamide]	–	–	–
5	41	88	CC(=O)NCC1CCCCN1C(=O)Nc1ccc(-c2noc(C(F)(F)F)n2)cc1 (stereo not drawn) [Example 48, 2-(acetamidomethyl)-N-(4-(5-(trifluoromethyl)-1,2,4-oxadiazol-3-yl)phenyl)piperidine-1-carboxamide]	–	–	–
4	35	95	O=C(NCC1CCCCN1C(=O)Nc1ccc(-c2noc(C(F)(F)F)n2)cc1)c1cccc(F)c1 (stereo not drawn) [Example 5, 2-(((3-fluorobenzoyl)amino)methyl)-N-(4-(5-(trifluoromethyl)-1,2,4-oxadiazol-3-yl)phenyl)piperidine-1-carboxamide]	–	–	–
1	4	70	O=C(NCC1CCCCN1C(=O)Nc1ccc(-c2noc(C(F)(F)F)n2)cc1)c1cccc(Cl)c1Cl (stereo not drawn) [Example 30, 2-(((2,3-dichlorobenzoyl)amino)methyl)-N-(4-(5-(trifluoromethyl)-1,2,4-oxadiazol-3-yl)phenyl)piperidine-1-carboxamide]	–	–	–
3	4	94	O=C(NCC1CCCCN1C(=O)Nc1ccc(-c2noc(C(F)(F)F)n2)cc1)c1ccc(Cl)cc1 (stereo not drawn) [Example 9, 2-(((4-chlorobenzoyl)amino)methyl)-N-(4-(5-(trifluoromethyl)-1,2,4-oxadiazol-3-yl)phenyl)piperidine-1-carboxamide]	–	–	–
11	93	94	O=C(Cc1cccs1)NCC1CCCCN1C(=O)Nc1ccc(-c2noc(C(F)(F)F)n2)cc1 (stereo not drawn) [Example 46, 2-(((2-thienylacetyl)amino)methyl)-N-(4-(5-(trifluoromethyl)-1,2,4-oxadiazol-3-yl)phenyl)piperidine-1-carboxamide]	–	–	–
4	25	83	Cc1ccnc(C(=O)NCC2CCCCN2C(=O)Nc2ccc(-c3noc(C(F)(F)F)n3)cc2)c1 (stereo not drawn) [Example 56, 4-methyl-N-((1-((4-(5-(trifluoromethyl)-1,2,4-oxadiazol-3-yl)phenyl)carbamoyl)piperidin-2-yl)methyl)pyridine-2-carboxamide]	–	–	–
8	73	97	O=C(NCC1CCCCN1C(=O)Nc1ccc(-c2noc(C(F)(F)F)n2)cc1)C1CCOCC1 (stereo not drawn) [Example 51, 2-(((tetrahydro-2H-pyran-4-ylcarbonyl)amino)methyl)-N-(4-(5-(trifluoromethyl)-1,2,4-oxadiazol-3-yl)phenyl)piperidine-1-carboxamide]	–	–	–
